Experimental data reported in US20230084839A1, “ACTIVE AGENTS AGAINST CORONAVIRUS INFECTIONS AND DISEASES CAUSED THEREBY” (Eberhard Karls Universität Tübigen Medizinische Fakultät, priority 2020, published 2023).

Experiments:
SARS-CoV-2 [1] = type: cell-based; settings: Calu3 cells; for reduction of the cytopathic effect caused by viral infection: Data series 1, SARS-CoV-2, 10 and 1 μM, compared with mock and infected; for inhibitory effects on the virus-induced cytopathic effect: Data series 2, concentrations 10 μM-0.3125 μM
SARS-CoV-2 [2] = type: cell-based; settings: 48 hours post-infection, DAPI+ cell count

Structure (SMILES) | reduction of the cytopathic effect caused by viral infection (SARS-CoV-2 [1]) | inhibitory effects on the virus-induced cytopathic effect (SARS-CoV-2 [1]) | concentration from which positive effects on the total number or survival of Calu3 cells after SARS-CoV-2 infection occur (SARS-CoV-2 [2]) | positive effects on the total number or survival of Calu3 cells after SARS-CoV-2 infection (SARS-CoV-2 [2])
CN(C)C(=O)c1cc2cnc(Nc3ccc(N4CCNCC4)cn3)nc2n1C1CCCC1 [ribociclib, Ribociclib] | no inhibitory effects |  |  | 
Cc1sc2c(c1C)C(c1ccc(Cl)cc1)=N[C@@H](CC(N)=O)c1nnc(C)n1-2 [CPI203] | significant reduction | still evident even at the lowest concentrations | approximately 20 nM | 
COc1cc2c(cc1-c1c(C)noc1C)ncc1[nH]c(=O)n([C@H](C)c3ccccn3)c12 [IBET151] | significant reduction | still evident even at the lowest concentrations | approximately 20 nM | 
CCN(CCO)CCCC(C)Nc1ccnc2cc(Cl)ccc12 (stereo not drawn) [hydroxychloroquine, Hydroxychloroquine] | no inhibitory effects |  |  | not observed
